Experimental data from US4491675A, “Hydroformylation process using triarylphosphine and bisphosphine monooxide ligands” (Union Carbide Corporation, priority 1981, dated 1985).

What was measured:
[1] = Continuous propylene hydroformylation, long term catalyst stability (Examples 1 to 13, Table I); details: for thermal catalyst stability: 130° C., in words, relative comparison of ligand systems of Table I; for Aldehyde Product Reaction Rate, day 4, corrected reaction rate (in parenthesis) / Aldehyde Product Reaction Rate, day 4: day 4 at 130° C.; for Aldehyde Product Reaction Rate, day 4, corrected reaction rate (in parenthesis): corrected with mathematical rate model for standard rhodium-triphenylphosphine catalyst; for % Activity Decline: decline in catalyst activity from Day 1 through Day 4 at 130° C.; for Aldehyde Product Reaction Rate, day 1 / Aldehyde Product Reaction Rate, day 4: observed, total gas about 165 psig, Rh 100 or 200 ppm; for Aldehyde Product Reaction Rate, day 1: day 1 at 130° C.
Description: A series of long term catalyst stability experiments were conducted in a glass reactor operating in a continuous propylene hydroformylation mode. The reactor consisted of a three ounce pressure bottle submersed in an oil bath with a glass front for viewing. In each experiment about 20 ml. of a freshly prepared rhodium catalytic precursor solution was charged to the reactor with a syringe after purging the system with nitrogen. Each precursor solution contained from 100 to 200 ppm rhodium calculated as free metal (as noted in Table I below) introduced as rhodium dicarbonyl acetylacetonate, a phosphorus ligand or mixture of phosphorus ligands and a solvent.
After closing the reactor, the system was again purged with nitrogen and the oil bath was heated to furnish the desired hydroformylation reaction temperature. […] The flows of the feed gases (carbon monoxide, hydrogen and propylene) were controlled individually with mass flow meters and the feed gases dispersed into the precursor solution via fritted glass spargers. The unreacted portion of the feed gases stripped out the product aldehydes. […] The product aldehydes for each experiment were analyzed over the first day of continuous operation at 130° C. and over the fourth day of continuous operation at 130° C. and the average reaction rates for each experiment in terms of gram moles per liter per hour of total product aldehydes for the first and fourth days of continuous operation at the average measured partial pressures of hydrogen, carbon monoxide and propylene for said days are given in Table I below.

[2] = Continuous propylene hydroformylation with stepwise CO partial pressure increase, catalyst stability (Examples 14 to 18, Table II); details: for Aldehyde Product Reaction Rate, day 12, corrected reaction rate (in parenthesis): day 12 at 130° C., corrected with mathematical rate model for standard rhodium-triphenylphosphine catalyst; for % Activity Decline: decline in catalyst activity from Day 6 through Day 12 at 130° C.; for Aldehyde Product Reaction Rate, day 6: observed, day 6 at 130° C., total gas about 165 psig, Rh 200 or 300 ppm
Description: During days 9 to 13 the carbon monoxide partial pressure was increased stepwise from about 10 to 25 psia and returned to about 10 psia for day 14.

Compound	thermal catalyst stability [1]	Aldehyde Product Reaction Rate, day 4, corrected reaction rate (in parenthesis) [1]	% Activity Decline [1] [%]	Aldehyde Product Reaction Rate, day 1 [1] [g·mol/L/h]	Aldehyde Product Reaction Rate, day 4 [1] [g·mol/L/h]	Aldehyde Product Reaction Rate, day 12, corrected reaction rate (in parenthesis) [2]	% Activity Decline [2] [%]	Aldehyde Product Reaction Rate, day 6 [2] [gmoles/L hr]
c1ccc(P(c2ccccc2)c2ccccc2)cc1 [Example 1, (C6 H5)3 P]	inferior thermal stability	1.00 g·mol/L/h	42	1.74	1.12			
O=P(CCP(c1ccccc1)c1ccccc1)(c1ccccc1)c1ccccc1 [Example 9, (C6 H5)2 P(CH2)2 P(O)(C6 H5)2]	inferior thermal stability	0.63 g·mol/L/h	40	1.06	0.87			
c1ccc(P(c2ccccc2)c2ccccc2)cc1 [Example 14, (C6 H5)3 P]						.76 gmoles/L hr	32	1.12
(CH3 C6 H4)3 P [Example 3]		1.02 g·mol/L/h	25	1.36	1.49			
(CH3 O-C6 H4)3 P [Example 16]						1.14 gmoles/L hr	14	1.33
(CH3 OC6 H4)3 P [Example 5]		1.36 g·mol/L/h	13	1.57	1.68			
(ClC6 H4)3 P [Example 8]		.32 g·mol/L/h	46	0.59	0.49			
CH3 -C6 H4)3 P [Example 15]						1.24 gmoles/L hr	17	1.50
